This note sets out measurements from ChEMBL document CHEMBL3414538, “Synthesis, biological evaluation and molecular modeling studies of the PPARβ/δ antagonist CC618” (Eur J Med Chem, 2015).

pIC50: −log10 of the molar value. Active and inactive are the calls of the source. No cut-off for these calls is given here.

The target of experiment [1] is T1, Peroxisome proliferator-activated receptor delta (Homo sapiens, UniProt Q03181).
T1 sequence (Q03181 whole entry): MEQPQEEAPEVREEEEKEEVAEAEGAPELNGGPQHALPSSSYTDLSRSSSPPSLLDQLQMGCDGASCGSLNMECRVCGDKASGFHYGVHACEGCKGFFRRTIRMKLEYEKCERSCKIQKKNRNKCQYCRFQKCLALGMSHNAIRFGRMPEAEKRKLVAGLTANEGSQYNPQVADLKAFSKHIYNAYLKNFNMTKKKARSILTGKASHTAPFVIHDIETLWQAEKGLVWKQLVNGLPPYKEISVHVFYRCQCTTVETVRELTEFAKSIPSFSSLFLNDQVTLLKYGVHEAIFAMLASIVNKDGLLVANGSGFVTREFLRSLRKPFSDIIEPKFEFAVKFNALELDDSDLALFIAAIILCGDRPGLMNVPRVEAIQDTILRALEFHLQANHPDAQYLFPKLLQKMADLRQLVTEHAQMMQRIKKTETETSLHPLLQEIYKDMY
In words: Antagonist activity against pSG5-Gal4-tagged human PPAR-beta/delta ligand binding domain expressed in COS1 cells assessed as inhibition of GW501516-induced receptor activation incubated for 19 hrs by pGL3-5XUAS-SV40 luciferase reporter gene assay. It is filed as cell-based, COS-1. The settings on record: for pIC50: read-out: IC50. On the technique in general: A reporter such as luciferase makes a cellular process visible.

Experiment [2] deals with T1, Peroxisome proliferator-activated receptor delta. In words: Agonist activity at pSG5-Gal4-tagged human PPAR-beta/delta ligand binding domain expressed in COS1 cells assessed as receptor activation incubated for 19 hrs by pGL3-5XUAS-SV40 luciferase reporter gene assay. It is filed as cell-based. The following applies: cos-1.
For experiment [3], the target named is T2, Peroxisome proliferator-activated receptor gamma (Homo sapiens) (UniProt P37231).
T2 sequence (whole entry): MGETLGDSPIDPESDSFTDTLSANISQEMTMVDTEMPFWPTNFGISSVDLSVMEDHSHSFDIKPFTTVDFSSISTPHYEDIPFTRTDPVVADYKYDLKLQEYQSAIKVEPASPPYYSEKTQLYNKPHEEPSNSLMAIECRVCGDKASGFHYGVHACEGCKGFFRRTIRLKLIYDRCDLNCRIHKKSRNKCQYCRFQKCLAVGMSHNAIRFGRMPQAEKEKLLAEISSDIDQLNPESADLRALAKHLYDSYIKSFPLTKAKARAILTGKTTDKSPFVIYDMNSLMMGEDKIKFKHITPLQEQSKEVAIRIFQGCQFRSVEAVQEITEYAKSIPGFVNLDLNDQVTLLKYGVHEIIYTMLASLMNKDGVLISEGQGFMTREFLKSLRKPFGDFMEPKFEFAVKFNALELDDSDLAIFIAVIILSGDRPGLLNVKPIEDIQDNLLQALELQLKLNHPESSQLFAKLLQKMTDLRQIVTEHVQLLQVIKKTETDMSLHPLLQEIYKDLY
In words: Antagonist activity against pSG5-Gal4-tagged human PPAR-gamma ligand binding domain expressed in COS1 cells assessed as inhibition of rosiglitazone-induced receptor activation at 20 nM to 20000 nM incubated for 19 hrs by pGL3-5XUAS-SV40 luciferase reporter gene assay. It is filed as cell-based. The following applies: COS-1.

Experiment [4] deals with T3, Peroxisome proliferator-activated receptor alpha (Homo sapiens) (UniProt Q07869).
T3 sequence (whole entry): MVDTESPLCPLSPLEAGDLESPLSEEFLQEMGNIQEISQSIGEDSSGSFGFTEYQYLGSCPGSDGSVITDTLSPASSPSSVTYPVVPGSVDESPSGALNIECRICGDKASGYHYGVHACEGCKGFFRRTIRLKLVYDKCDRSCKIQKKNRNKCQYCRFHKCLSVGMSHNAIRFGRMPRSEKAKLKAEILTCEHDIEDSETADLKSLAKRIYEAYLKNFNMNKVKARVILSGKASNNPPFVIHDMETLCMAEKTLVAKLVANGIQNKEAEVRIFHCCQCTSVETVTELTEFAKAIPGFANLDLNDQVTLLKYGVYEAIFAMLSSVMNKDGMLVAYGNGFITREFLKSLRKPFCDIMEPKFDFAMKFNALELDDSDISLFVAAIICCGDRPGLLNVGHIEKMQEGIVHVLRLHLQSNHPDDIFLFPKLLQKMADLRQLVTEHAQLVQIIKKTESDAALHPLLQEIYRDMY
In words: Antagonist activity against pSG5-Gal4-tagged human PPAR-alpha ligand binding domain expressed in COS1 cells assessed as inhibition of bezafibrate-induced receptor activation at 1 nM to 100000 nM incubated for 19 hrs by pGL3-5XUAS-SV40 luciferase reporter gene assay. The settings on record: COS-1. It is filed as cell-based.

Regarding `Cc1nc(-c2ccc(C(F)(F)F)cc2)sc1C(=O)NCCS(=O)(=O)c1ccccn1`, the IC50 result in experiment [1] (cos-1) was “Not Active”.

As to `O=C(NCCS(=O)(=O)c1ccc(C(F)(F)F)cn1)c1ccc(Cl)cc1`, the EC50 result in experiment [2] is “Not Active”. In addition, the pIC50 in experiment [1] is 5.30.

With `Cc1nc(-c2ccc(C(F)(F)F)cc2)sc1C(=O)NCCS(=O)(=O)c1ccc(C(F)(F)F)cn1`, the EC50 result in experiment [2] is “Not Active”. The pIC50 in experiment [1] was 5.00. Besides, the inhibition result in experiment [3] and in experiment [4] was “inactive” throughout.

The pIC50 is the negative decadic logarithm of the IC50, by convention in mol/L.
